Reference: US6596706B1, “Piperazine-cyclodextrin complexes” (Daiichi Pharmaceutical Co., Ltd., priority 1997, dated 2003)

Columns and labels:
red blood cells = test: Hemolysis activity with red blood cell suspension, absorbance at 588 nm; format: cell-based; conditions: for hemolysis activity of compound (1): 0.6 mM compound (1), more suppressed at higher cyclodextrin concentration, FIG. 1
Experimental: To 10 mM isotonic phosphate buffer solution (pH 6.0, 2 ml) containing SBE7-β-CD or hydroxypropyl-β-cyclodextrin (product of Nihon Shokuhin Kako; hereinafter may be abbreviated as HP-β-CD; molecular weight 1413; substitution ratio: 4.8/21 (about 23%)) at a different concentration and 0.6 mM compound (1) (concentration that permits complete hemolysis) was added a suspension (0.2 ml) of red blood cells suspension (5%). The mixture was maintained for 30 minutes at 37° C. After centrifugal separation (1000× g, 5 min), oxyhemoglobin and methohemoglobin contained in the supernatant were determined based on the absorbance at 588 nm, to thereby investigate the hemolysis activity of compound (1).

[1] = Solubility of compound (1) in aqueous SBE7-β-CD solution or water, HPLC of filtered supernatant; format: physicochemical
Experimental: To an aqueous solution of a β-cyclodextrin sulfobutyl ether sodium salt (product of CyDex; hereinafter may be abbreviated as SBE7-β-CD; molecular weight 2162.01; substitution ratio: 7/21 (about 33%)) (26, 40, or 72 mM; 2.5 ml) was added an excessive amount of 3-[2-[4-(3-chloro-2-methylphenyl)-1-piperadinyl]ethyl]-5,6-dimethoxy-1-(4-imidazolylmethyl)-1H-indazole,.2HCl.3.5H2O(hereinafter may be abbreviated as compound (1); molecular weight: 631.0) (400 mg). The mixture was allowed to stand for 7 days in a 25° C. water bath. During the standing period, the mixture was sonicated once a day for 15 minutes, followed by stirring for 2 minutes. On the first, fifth, and seventh days, pH of the mixture was adjusted to 4.0 by addition of adequate amount of HCl. After pH was adjusted on the seventh day, the amount of the entirety of the mixture was adjusted to 5 ml (to thereby achieve a SBE7-β-CD concentration of […]). Six days later, the mixture was subjected to centrifugal separation, to thereby collect a supernatant. […] Similarly, the solubility of the piperazine derivative (I) for water was also determined by HPLC.
(Conditions for High Performance Liquid Chromatography (HPLC))
Mobile phase: 50 mM phosphate buffer solution (pH 5.5)/acetonitrile (1:1)
Column temperature: 40° C.

Compound: COc1cc2c(CCN3CCN(c4cccc(Cl)c4C)CC3)nn(Cc3c[nH]cn3)c2cc1OC.Cl.Cl [compound (1), 3-[2-[4-(3-chloro-2-methylphenyl)-1-piperadinyl]ethyl]-5,6-dimethoxy-1-(4-imidazolylmethyl)-1H-indazole,.2HCl.3.5H2O]
- concentration that permits complete hemolysis (red blood cells; 10 mM isotonic phosphate buffer pH 6.0, 30 minutes at 37° C.): 0.6 mM
- hemolysis activity of compound (1) (red blood cells; complex formed by addition of HP-β-CD): suppressed
- hemolysis activity of compound (1) (red blood cells; complex formed by addition of SBE7-β-CD): suppressed
- Concentration of compound (1) in supernatant ([1]; Compound (1) alone, solubility for water): 14.6 mM
- Concentration of compound (1) in supernatant ([1]; SBE7-β-CD 13 mM, 25° C., pH 4.0): 19.0 mM
- Concentration of compound (1) in supernatant ([1]; SBE7-β-CD 20 mM, 25° C., pH 4.0): 25.6 mM
- Concentration of compound (1) in supernatant ([1]; SBE7-β-CD 36 mM, 25° C., pH 4.0): 56.7 mM
